Assays:
[1] = system: normal primary NK cells, pool 3 (3 donors) (IL-2 2.5 ng/mL); assay: percent inhibition of viability; higher = more inhibition; settings: 72 h
IMC-1 (IL-2 20 ng/mL) [2] = assay: as above; settings: 72 h
[3] = system: normal primary NK cells, pool 1 (3 donors) (IL-2 2.5 ng/mL); assay: as above; settings: 72 h
KHYG-1 (IL-2 2.5 ng/mL) [4] = assay: as above; settings: 72 h
NK-YS (IL-2 2.5 ng/mL) [5] = assay: as above; settings: 72 h
DERL-7 (IL-2 2.5 ng/mL) [6] = assay: as above; settings: 72 h
[7] = system: normal primary NK cells, pool 1 (3 donors), resting (IL-2 0 ng/mL); assay: as above; settings: 72 h
KAI3 (IL-2 2.5 ng/mL) [8] = assay: as above; settings: 72 h
NK-92 (IL-2 2.5 ng/mL) [9] = assay: as above; settings: 72 h
YT (IL-2 2.5 ng/mL) [10] = assay: as above; settings: 72 h
[11] = system: normal primary NK cells, pool 2 (3 donors) (IL-2 2.5 ng/mL); assay: as above; settings: 72 h
NKL (IL-2 2.5 ng/mL) [12] = assay: as above; settings: 72 h
SNK-6 (IL-2 2.5 ng/mL) [13] = assay: as above; settings: 72 h
[14] = system: normal NK cells expanded with K562-aAPC; assay: drug sensitivity score (DSS) (DSS units); higher = more sensitive; extreme values may be limits of the assay; settings: 72 h; IL-2 2.5 ng/mL
Experimental: (§1)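 Drug sensitivity and resistance testing on K562-aAPC-expanded normal NK cells: 5 concentrations (10-fold steps over a 10,000-fold range), 72 h at 37 °C, viability by CellTiter-Glo normalised to DMSO and benzethonium chloride controls; DSS from the fitted curve.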

[15] = system: normal NK cells expanded with K562-aAPC; assay: percent inhibition of viability; higher = more inhibition; settings: 72 h, IL-2 2.5 ng/mL
Experimental: as §1

[16] = system: normal primary NK cells, pool 3 (3 donors) (IL-2 2.5 ng/mL); assay: drug sensitivity score (DSS) (DSS units); higher = more sensitive; extreme values may be limits of the assay; settings: 72 h
IMC-1 (IL-2 20 ng/mL) [17] = assay: as above; settings: 72 h
[18] = system: normal primary NK cells, pool 1 (3 donors) (IL-2 2.5 ng/mL); assay: as above; settings: 72 h
KHYG-1 (IL-2 2.5 ng/mL) [19] = assay: as above; settings: 72 h
NK-YS (IL-2 2.5 ng/mL) [20] = assay: as above; settings: 72 h
DERL-7 (IL-2 2.5 ng/mL) [21] = assay: as above; settings: 72 h
[22] = system: normal primary NK cells, pool 1 (3 donors), resting (IL-2 0 ng/mL); assay: as above; settings: 72 h
KAI3 (IL-2 2.5 ng/mL) [23] = assay: as above; settings: 72 h
NK-92 (IL-2 2.5 ng/mL) [24] = assay: as above; settings: 72 h
YT (IL-2 2.5 ng/mL) [25] = assay: as above; settings: 72 h
[26] = system: normal primary NK cells, pool 2 (3 donors) (IL-2 2.5 ng/mL); assay: as above; settings: 72 h
NKL (IL-2 2.5 ng/mL) [27] = assay: as above; settings: 72 h
SNK-6 (IL-2 2.5 ng/mL) [28] = assay: as above; settings: 72 h

C[C@]12O[C@H](C[C@]1(O)CO)n1c3ccccc3c3c4c(c5c6ccccc6n2c5c31)CNC4=O [Lestaurtinib] (max concentration tested 1000 nM)
percent inhibition of viability [%]
Settings	0.1 nM	1 nM	10 nM	100 nM	1000 nM
DERL-7 (IL-2 2.5 ng/mL) [6]	6.54	3.47	17.9	85.4	99.6
IMC-1 (IL-2 20 ng/mL) [2]	-6.9	-5.94	-22.2	51.8	98.9
KAI3 (IL-2 2.5 ng/mL) [8]	-0.38	3.13	35.9	86.4	76.4
KHYG-1 (IL-2 2.5 ng/mL) [4]	-2.95	1.85	23.3	99.3	98.2
NK-92 (IL-2 2.5 ng/mL) [9]	-0.14	-6.28	7.06	76.2	82.7
NK-YS (IL-2 2.5 ng/mL) [5]	-0.02	0.67	6.21	48.1	87.8
NKL (IL-2 2.5 ng/mL) [12]	-13.1	-12.9	13.3	71.2	80.6
SNK-6 (IL-2 2.5 ng/mL) [13]	0.62	7.99	4.23	64.6	73.7
YT (IL-2 2.5 ng/mL) [10]	-2.5	-0.06	3.18	55.1	91.6
[1]	-8.42	-14	-3.13	65.2	72.3
[3]	-8.02	-1.5	10.2	76	75.2
[7]	4.88	-1.99	-2.95	26	18.6
[11]	-7.68	3.05	13.7	69.3	73
[15]	0.88	0.03	29	96.5	95.9

Settings	drug sensitivity score
DERL-7 (IL-2 2.5 ng/mL) [21]	17.9
IMC-1 (IL-2 20 ng/mL) [17]	11.8
KAI3 (IL-2 2.5 ng/mL) [23]	20.1
KHYG-1 (IL-2 2.5 ng/mL) [19]	21.5
NK-92 (IL-2 2.5 ng/mL) [24]	15
NK-YS (IL-2 2.5 ng/mL) [20]	10.6
NKL (IL-2 2.5 ng/mL) [27]	14.8
SNK-6 (IL-2 2.5 ng/mL) [28]	12.5
YT (IL-2 2.5 ng/mL) [25]	11.7
[14]	21.6
[16]	11.9
[18]	15.6
[22]	3.91
[26]	14.7

Cc1c(CN2CCN(C(=O)[C@H](C)O)CC2)sc2c(N3CCOCC3)nc(-c3cnc(N)nc3)nc12 [Apitolisib] (max concentration tested 10000 nM)
percent inhibition of viability [%]
Settings	1 nM	10 nM	100 nM	1000 nM	10000 nM
DERL-7 (IL-2 2.5 ng/mL) [6]	3.04	1.57	29.2	78.4	92.4
IMC-1 (IL-2 20 ng/mL) [2]	-4.85	-5.41	-12.6	-55.2	8.81
KAI3 (IL-2 2.5 ng/mL) [8]	0.17	-2.02	17.9	39.6	65.3
KHYG-1 (IL-2 2.5 ng/mL) [4]	-2.58	-0.95	-1.53	18	76.4
NK-92 (IL-2 2.5 ng/mL) [9]	16	7.33	22.5	45.1	57.8
NK-YS (IL-2 2.5 ng/mL) [5]	-2.41	1.63	8.5	47.2	73.8
NKL (IL-2 2.5 ng/mL) [12]	-12	-7.01	2.26	53.8	65.7
SNK-6 (IL-2 2.5 ng/mL) [13]	13.8	9.78	15.2	21.3	45.5
YT (IL-2 2.5 ng/mL) [10]	0.06	0.22	4.58	47.5	71
[1]	-10.7	-12.9	-5.47	6.17	59.6
[3]	-11.8	-13.1	4.5	40.1	75
[7]	-0.63	-14.4	-6.11	24.3	34.8
[11]	-13.9	-6.6	0.47	22.1	66.1
[15]	2.46	-0.12	17.4	39.8	85.8

Settings	drug sensitivity score
DERL-7 (IL-2 2.5 ng/mL) [21]	18
IMC-1 (IL-2 20 ng/mL) [17]	0
KAI3 (IL-2 2.5 ng/mL) [23]	9.5
KHYG-1 (IL-2 2.5 ng/mL) [19]	7.06
NK-92 (IL-2 2.5 ng/mL) [24]	11.3
NK-YS (IL-2 2.5 ng/mL) [20]	10.2
NKL (IL-2 2.5 ng/mL) [27]	10.3
SNK-6 (IL-2 2.5 ng/mL) [28]	6.63
YT (IL-2 2.5 ng/mL) [25]	9.84
[14]	10
[16]	4.24
[18]	8.91
[22]	4.44
[26]	6.81

Cc1cccc(-c2nn3c(c2-c2ccnc4ccc(C(N)=O)cc24)CCC3)n1 [Galunisertib] (max concentration tested 1000 nM)
percent inhibition of viability [%]
Settings	0.1 nM	1 nM	10 nM	100 nM	1000 nM
DERL-7 (IL-2 2.5 ng/mL) [6]	5.62	1.68	4.85	-1.77	1.92
IMC-1 (IL-2 20 ng/mL) [2]	-7.13	-0.55	-5.27	-8.99	-4.14
KAI3 (IL-2 2.5 ng/mL) [8]	-4.52	0.48	-2.74	-1.09	-2.65
KHYG-1 (IL-2 2.5 ng/mL) [4]	-4.42	-0.98	-7.17	0.3	-1.95
NK-92 (IL-2 2.5 ng/mL) [9]	6.42	-19.6	-7	-11.1	-5.09
NK-YS (IL-2 2.5 ng/mL) [5]	-4.82	-4.05	-5.75	-3.29	-5.06
NKL (IL-2 2.5 ng/mL) [12]	-14.8	-16.4	-19.5	-16.8	-23.6
SNK-6 (IL-2 2.5 ng/mL) [13]	4.83	20.7	0	-0.11	-19.9
YT (IL-2 2.5 ng/mL) [10]	-3.06	-2.63	-3.58	1.78	1.58
[1]	-11	-5.65	-10	-14.2	-19.7
[3]	0.38	-7.01	-9.1	-2.92	-15.2
[7]	-3.02	-1.34	-8.83	11.9	15
[11]	-8.56	-7.94	-11.5	-15	-20.2
[15]	-0.13	-4.95	-1.88	-4.21	-16.8

Settings	drug sensitivity score
DERL-7 (IL-2 2.5 ng/mL) [21]	0
IMC-1 (IL-2 20 ng/mL) [17]	0
KAI3 (IL-2 2.5 ng/mL) [23]	0
KHYG-1 (IL-2 2.5 ng/mL) [19]	0
NK-92 (IL-2 2.5 ng/mL) [24]	0
NK-YS (IL-2 2.5 ng/mL) [20]	0
NKL (IL-2 2.5 ng/mL) [27]	0
SNK-6 (IL-2 2.5 ng/mL) [28]	0
YT (IL-2 2.5 ng/mL) [25]	0
[14]	0
[16]	0
[18]	0
[22]	1.02
[26]	0

Reference: the supplement of paper PMC5908809
